Assay results published in US8481527B2, “Benzamide derivatives as bradykinin antagonists” (Richter Gedeon Nyrt., priority 2006, dated 2013).
Counter-ions that a name gives are not always drawn.

Legend:
[1] = target: T1, recombinant human B1 receptors (Homo sapiens, UniProt P46663); assay: Functional assay: antagonist potency by cytosolic calcium measurement in CHO-B1 cells (agonist LysDABK); type: cell-based; conditions: CHO-B1 cells, LysDABK at EC80, fluo-4 [Ca2+]i; read-out: B1 func.
T1 construct: host or cells: CHO (CHO-B1)
T1 sequence (P46663 1-353): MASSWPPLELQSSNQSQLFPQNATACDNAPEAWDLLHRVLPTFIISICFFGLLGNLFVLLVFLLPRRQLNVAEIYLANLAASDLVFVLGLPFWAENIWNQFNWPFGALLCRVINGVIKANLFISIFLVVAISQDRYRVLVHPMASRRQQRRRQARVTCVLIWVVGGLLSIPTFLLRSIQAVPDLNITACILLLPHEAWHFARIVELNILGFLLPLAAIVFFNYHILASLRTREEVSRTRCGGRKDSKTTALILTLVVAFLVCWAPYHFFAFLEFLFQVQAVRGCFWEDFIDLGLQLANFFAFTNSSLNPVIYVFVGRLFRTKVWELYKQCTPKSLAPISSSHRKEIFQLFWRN
Description: Assessment of Antagonist Potency at B1 and B2 Receptors In Vitro by Measurement of Cytosolic Calcium Ion Concentration with a Plate Reader Fluorimeter in Cells Expressing Recombinant Human B1 or B2 Receptors
Chinese hamster ovary (CHO) cells stably expressing recombinant human B1 (CHO-B1, Euroscreen) or B2 (CHO-B2, Perkin-Elmer) receptors were cultured in Dulbecco's Modified Eagle's Medium (DMEM) containing 10% Fetal Calf Serum (FCS), 100 U/ml penicillin, 0.1 mg/ml streptomycin, 0.25 μg/ml amphotericin B, 1% Minimum Essential Medium Eagle (MEM), non essential amino acid solution, 600 μg/ml G418, 1% pyruvate (for the B2 cell line). Cells were kept at 37° C. in a humidified incubator in an atmosphere of 5% CO2/95% air and were passaged 1:4 three times a week. Cells were plated at 1.5-2.5×10^4 cell/well on standard 96-well microplates, measurements of cytosolic calcium ion concentration ([Ca^2+]i) were carried out 1-2 days after cell plating.
Measurements of [Ca^2+]i were carried out on CHO-B1 and CHO-B2 cells stably expressing human B1 and B2 receptors, respectively. Cells were grown in standard 96-well microplates and before the measurement were loaded with a fluorescent Ca^2+-sensitive dye, fluo-4/AM (2 μM): after removing the culture medium the dye was added to the cells (dissolved in assay buffer: 145 mM NaCl, 5 mM KCl, 2 mM MgCl2, 2 mM CaCl2, 10 mM HEPES, 20 mM D-glucose, 2 mM probenecid, 100 μl/well) and cells were incubated at 37° C. in a humidified incubator in an atmosphere of 5% CO2/95% air for 40-120 min. To stop dye loading cells were washed twice with assay buffer. After washing, various concentrations of the test compounds (diluted in extracellular medium from a DMSO stock solution, final DMSO concentration was <0.1%) or buffer were added to each well depending on the experimental setup. After incubation at 37° C. for 20-25 min. baseline and agonist-evoked changes of [Ca^2+]i were measured column by column with a plate reader fluorimeter (Fluoroskan Ascent, Labsystems). Excitation and detection of emission was carried out from the bottom of the plate. Filters used for Fluo-4: excitation filter—485 nm, emission filter—538 nm. The whole measurement process was performed at 37° C. and was controlled by custom software. Inhibitory potency of the test compounds was assessed by measuring the reduction in the agonist-evoked [Ca^2+]i-elevation in the presence of different concentrations of the compounds. The agonists were LysDABK for CHO-B1, and bradykinin for CHO-B2 cells. Agonists were applied at an EC80 concentration, the EC80-values were derived from daily determined dose-response curves. Fluorescence data were expressed as ΔF/F (fluorescence change normalized to baseline). All treatments on a single plate were measured in multiple wells. Data from all wells with the same treatment were averaged and the average values were used for analysis. Inhibitory potency of a compound at a single concentration point was expressed as percent inhibition of the control agonist response. Sigmoidal concentration-inhibition curves were fitted to the data (derived from at least three independent experiments) and IC50-values were determined as the concentration that produces half of the maximal inhibition caused by the compound.

[2] = target: T2, human recombinant bradykinin B1 receptor (Homo sapiens, UniProt P46663); assay: Human recombinant bradykinin B1 receptor binding; conditions: CHO cell membranes, [3H]-[Des-Arg10] Kallidin radioligand; read-out: B1 binding
T2 construct: purchased Euroscreen ES-091; host or cells: CHO cells
T2 sequence (P46663 1-353): T1 sequence (P46663 1-353)
Description: Receptor Binding Assays 1. Human Recombinant Bradykinin B1 Receptor Binding
Binding assays were carried out on human recombinant bradykinin) receptors (expressed in CHO cells) according to the Euroscreen Technical Data Sheet (Cat.No.:ES-091). 20 μg protein/tube was incubated with [3,4-prolyl-3,4-^3H(N)]-[Des-Arg^10] Kallidin as radioligand. Non specific binding was determined in the presence of 10 μM Lys-des-Arg^9-Bradykinin. The final incubation volume was 250 μl. Samples were incubated for 15 min. at 25° C. then were rapidly vacuum filtered through GF/B filters presoaked for at least 1 h in 0.5% PEI. Radioactivity was determined by liquid scintillation spectroscopy.

| SMILES | IC50 [1] [nM] | Ki [2] [nM] |
| --- | --- | --- |
| O=C(NCC(=O)N1CCN(CCN2CCCC2)CC1)c1ccc(S(=O)(=O)Nc2ccccc2Oc2ccc(Cl)cc2Cl)cc1 [Example 1.1, 4-[2-(2,4-Dichloro-phenoxy)-phenylsulfamoyl]-N-{2-oxo-2-[4-(2-pyrrolidin-1-yl-ethyl)-piperazin-1-yl]-ethyl}-benzamide] | < 20 | < 20 |
| O=C(NCC(=O)N1CCC(C(F)(F)F)CC1)c1ccc(S(=O)(=O)Nc2ccccc2C(=O)c2ccccc2)cc1 [Example 3.6, 4-(2-Benzoyl-phenylsulfamoyl)-N-[2-oxo-2-(4-trifluoromethyl-piperidin-1-yl)-ethyl]-benzamide] | < 20 | < 20 |
| CN(C)CCN1CCN(C(=O)CNC(=O)c2ccc(S(=O)(=O)Nc3ccccc3C(=O)c3ccccc3)cc2)CC1 [Example 3.2, 4-(2-Benzoyl-phenylsulfamoyl)-N-{2-[4-(2-dimethylamino-ethyl)-piperazin-1-yl]-2-oxo-ethyl}-benzamide] | < 20 | < 20 |
| O=C(NCC(=O)N1CCCN(CCCN2CCCC2)CC1)c1ccc(S(=O)(=O)Nc2ccccc2Oc2ccc(Cl)cc2Cl)cc1 [Example 1.11, 4-[2-(2,4-Dichloro-phenoxy)-phenylsulfamoyl]-N-{2-oxo-2-[4-(3-pyrrolidin-1-yl-propyl)-[1,4]diazepan-1-yl]-ethyl}-benzamide] | < 20 | < 20 |
| O=C(NCC(=O)N1CCCN(CCCN2CCOCC2)CC1)c1ccc(S(=O)(=O)Nc2ccccc2Oc2ccc(Cl)cc2Cl)cc1 [Example 1.8, 4-[2-(2,4-Dichloro-phenoxy)-phenylsulfamoyl]-N-{2-[4-(3-morpholin-4-yl-propyl)-[1,4]diazepan-1-yl]-2-oxo-ethyl}-benzamide] | < 20 | < 20 |
| O=C(NCC(=O)N1CCC(CCN2CCCC2)CC1)c1ccc(S(=O)(=O)Nc2ccccc2Oc2ccc(Cl)cc2Cl)cc1 [Example 1.6, 4-[2-(2,4-Dichloro-phenoxy)-phenylsulfamoyl]-N-{2-oxo-2-[4-(2-pyrrolidin-1-yl-ethyl)-piperidin-1-yl]-ethyl}-benzamide] | < 20 | < 20 |
| O=C(NCC(=O)N1CCN(CCN2CCCC2)CC1)c1ccc(S(=O)(=O)Nc2ccccc2Oc2ccccc2)cc1 [Example 2.2, N-{2-Oxo-2-[4-(2-pyrrolidin-1-yl-ethyl)-piperazin-1-yl]-ethyl}-4-(2-phenoxy-phenylsulfamoyl)-benzamide] | < 20 | < 20 |
| O=C(NCC(=O)N1CCC(CO)CC1)c1ccc(S(=O)(=O)Nc2ccccc2C(=O)c2ccccc2)cc1 [Example 3.9, 4-(2-Benzoyl-phenylsulfamoyl)-N-[2-(4-hydroxymethyl-piperidin-1-yl)-2-oxo-ethyl]-benzamide] | < 20 | < 20 |
| CN1CCCC(CN2CCN(C(=O)CNC(=O)c3ccc(S(=O)(=O)Nc4ccccc4C(=O)c4ccccc4)cc3)CC2)C1 (stereo not shown) [Example 3.8, 4-(2-Benzoyl-phenylsulfamoyl)-N-{2-[4-(1-methyl-piperidin-3-ylmethyl)-piperazin-1-yl]-2-oxo-ethyl}-benzamide] | < 20 | < 20 |
| CN(C)CCCN1CCN(C(=O)CNC(=O)c2ccc(S(=O)(=O)Nc3ccccc3C(=O)c3ccccc3)cc2)CC1 [Example 3.14, 4-(2-Benzoyl-phenylsulfamoyl)-N-{2-[4-(3-dimethylamino-propyl)-piperazin-1-yl]-2-oxo-ethyl}-benzamide] | < 20 | < 20 |
| O=C(NCC(=O)N1CCCCCC1)c1ccc(S(=O)(=O)Nc2ccccc2C(=O)c2ccccc2)cc1 [Example 3.4, N-(2-Azepan-1-yl-2-oxo-ethyl)-4-(2-benzoyl-phenylsulfamoyl)-benzamide] | < 20 | < 20 |
| O=C(NCC(=O)N1CCNCC1)c1ccc(S(=O)(=O)Nc2ccccc2Oc2ccc(Cl)cc2Cl)cc1 [Example 11.4, 4-[2-(2,4-Dichloro-phenoxy)-phenylsulfamoyl]-N-(2-oxo-2-piperazin-1-yl-ethyl)-benzamide hydrochloride] | < 20 | < 20 |

Continued, values first:

| IC50 [1] [nM] | Ki [2] [nM] | SMILES |
| --- | --- | --- |
| < 20 | < 20 | CN1CCC(N2CCN(C(=O)CNC(=O)c3ccc(S(=O)(=O)Nc4ccccc4Oc4ccccc4)cc3)CC2)CC1 [Example 2.34, N-{2-[4-(1-Methyl-piperidin-4-yl)-piperazin-1-yl]-2-oxo-ethyl}-4-(2-phenoxy-phenylsulfamoyl)-benzamide] |
| 20 to 100 | 20 to 100 | O=C(NCC(=O)N1CCC(O)CC1)c1ccc(S(=O)(=O)Nc2ccccc2Oc2ccccc2)cc1 [Example 2.10, N-[2-(4-Hydroxy-piperidin-1-yl)-2-oxo-ethyl]-4-(2-phenoxy-phenylsulfamoyl)-benzamide] |
| < 20 | < 20 | O=C(NCC(=O)N1CCC(CCN2CCCC2)CC1)c1ccc(S(=O)(=O)Nc2ccccc2Oc2ccccc2)cc1 [Example 2.7, N-{2-Oxo-2-[4-(2-pyrrolidin-1-yl-ethyl)-piperidin-1-yl]-ethyl}-4-(2-phenoxy-phenylsulfamoyl)-benzamide] |
| 20 to 100 | 20 to 100 | NC(=O)C1CCN(C(=O)CNC(=O)c2ccc(S(=O)(=O)Nc3ccccc3Oc3ccccc3)cc2)CC1 [Example 2.15, 1-{2-[4-(2-Phenoxy-phenylsulfamoyl)-benzoylamino]-acetyl}-piperidine-4-carboxylic acid amide] |
| < 20 | < 20 | CN(C)CCN1CCN(C(=O)CNC(=O)c2ccc(S(=O)(=O)Nc3ccccc3Oc3ccccc3)cc2)CC1 [Example 2.3, N-{2-[4-(2-Dimethylamino-ethyl)-piperazin-1-yl]-2-oxo-ethyl}-4-(2-phenoxy-phenylsulfamoyl)-benzamide] |
| < 20 | < 20 | CCN(CC)CCN1CCN(C(=O)CNC(=O)c2ccc(S(=O)(=O)Nc3ccccc3Oc3ccccc3)cc2)CC1 [Example 2.4, N-{2-[4-(2-Diethylamino-ethyl)-piperazin-1-yl]-2-oxo-ethyl}-4-(2-phenoxy-phenylsulfamoyl)-benzamide] |
| < 20 | 20 to 100 | O=C(NCC(=O)N1CCNCC1)c1ccc(S(=O)(=O)Nc2ccccc2Oc2ccccc2)cc1 [Example 11.2, N-(2-Oxo-2-piperazin-1-yl-ethyl)-4-(2-phenoxy-phenylsulfamoyl)-benzamide hyrochloride] |
| < 20 | < 20 | O=C(NCC(=O)N1CCC(CO)CC1)c1ccc(S(=O)(=O)Nc2ccccc2Oc2ccccc2)cc1 [Example 2.22, N-[2-(4-Hydroxymethyl-piperidin-1-yl)-2-oxo-ethyl]-4-(2-phenoxy-phenylsulfamoyl)-benzamide] |
